Reference: US20250268877A1 (BIOGEN MA INC., priority 2020, published 2025)
Values after ≈ are worked out from the molar mass of the structure shown.

What was measured:
IRAK4 = IRAK4 (Homo sapiens (Human), UniProt Q9NWZ3); assay: IRAK4 2-hour 1 mM ATP Biochemical Assay (MesoScale Detection format); details: 100 pM IRAK4, read-out: IRAK4 IC50
Protocol: The 2-hour 1 mM ATP Biochemical Assay employed a MesoScale Detection (MSD) format.
The activity was quenched with 11 μl of 70 mM EDTA, pH 8.
To detect the phosphorylated biotinylated peptide substrate, 30 μl of the quenched reaction mixture was added to equivalent wells of a 384 well streptavidin coated MesoScale plate (Meso Scale Discovery #L21SA-1). After a 1 hour incubation of the plate for 1 hour at room temperature with gentle mixing, the plate wells were washed 3 times with 50 mM Tris, pH 7.5, 150 mM NaCl, 0.02% Tween-20.
A 25 μl volume of 1:500 anti-P-Threonine Rabbit polyclonal Antibody plus 1:500 Goat-anti-Rabbit Sulfo Tag Antibody (Meso Scale Discovery R^32AB-1) in 50 mM Tris, pH 7.5, 150 mM NaCl, 0.02% Tween-20 plus 2% BSA was then added to each well. After a 1-hour incubation of the plate for 1 hour at room temperature with gentle mixing, the plate wells were washed, 3 times with 50 mM Tris, pH 7.5, 150 mM NaCl, 0.02% Tween-20.

MDR1 = MDR1 (Homo sapiens (Human), UniProt P08183); assay: MDR1-MDCK assay (apparent permeability, efflux ratio); format: in vitro ADME; details: human, MDCK-MDR1, 1 μM, read-out: MDR1-MDCK_Efflux Ratio
[1] = Kinetic solubility assay (CLND), potassium phosphate buffer pH 6.8; format: physicochemical; details: potassium phosphate buffer, pH 6.8, aqueous buffer, kinetic from dmso stock, pH 6.8, 2% DMSO, 24 hours at ambient temperature
Description: • Inject filtrates into the nitrogen detector for quantification on Analiza's Automated Discovery Workstation (ADW). • Solubility results generated in μg/mL

Chain of MDR1 (P08183 whole entry): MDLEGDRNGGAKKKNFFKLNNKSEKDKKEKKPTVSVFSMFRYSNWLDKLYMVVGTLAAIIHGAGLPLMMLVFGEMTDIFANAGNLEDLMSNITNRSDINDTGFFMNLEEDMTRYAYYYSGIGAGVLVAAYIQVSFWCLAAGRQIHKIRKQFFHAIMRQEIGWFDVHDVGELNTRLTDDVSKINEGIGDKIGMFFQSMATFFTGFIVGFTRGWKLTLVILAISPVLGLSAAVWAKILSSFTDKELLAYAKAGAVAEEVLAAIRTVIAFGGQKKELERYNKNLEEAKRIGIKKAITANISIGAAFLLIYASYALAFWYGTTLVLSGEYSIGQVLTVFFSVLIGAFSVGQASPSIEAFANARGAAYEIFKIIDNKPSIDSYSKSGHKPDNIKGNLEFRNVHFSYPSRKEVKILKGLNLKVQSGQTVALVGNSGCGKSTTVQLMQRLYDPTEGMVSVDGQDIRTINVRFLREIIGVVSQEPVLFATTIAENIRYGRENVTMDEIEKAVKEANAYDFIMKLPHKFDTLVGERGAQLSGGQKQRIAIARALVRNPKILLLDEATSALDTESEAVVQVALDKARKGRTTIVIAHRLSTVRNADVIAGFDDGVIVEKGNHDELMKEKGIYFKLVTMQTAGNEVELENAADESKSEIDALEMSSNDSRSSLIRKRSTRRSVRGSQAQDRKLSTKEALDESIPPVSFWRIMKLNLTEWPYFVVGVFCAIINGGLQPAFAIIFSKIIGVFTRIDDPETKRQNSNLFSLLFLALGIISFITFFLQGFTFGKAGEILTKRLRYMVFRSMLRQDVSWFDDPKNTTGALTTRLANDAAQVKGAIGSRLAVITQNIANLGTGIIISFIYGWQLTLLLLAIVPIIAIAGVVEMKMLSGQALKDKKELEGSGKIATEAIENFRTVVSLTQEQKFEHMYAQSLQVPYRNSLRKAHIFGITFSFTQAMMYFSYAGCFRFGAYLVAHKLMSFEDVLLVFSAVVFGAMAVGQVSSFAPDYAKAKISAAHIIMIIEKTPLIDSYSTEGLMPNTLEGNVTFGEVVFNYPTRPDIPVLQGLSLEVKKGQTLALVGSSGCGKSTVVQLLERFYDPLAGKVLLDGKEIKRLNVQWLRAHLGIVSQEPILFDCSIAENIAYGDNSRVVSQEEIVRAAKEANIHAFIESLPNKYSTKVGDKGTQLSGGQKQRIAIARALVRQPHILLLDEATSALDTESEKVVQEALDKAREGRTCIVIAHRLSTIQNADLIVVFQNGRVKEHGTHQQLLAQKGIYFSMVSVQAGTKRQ
Chain of IRAK4 (Q9NWZ3 whole entry): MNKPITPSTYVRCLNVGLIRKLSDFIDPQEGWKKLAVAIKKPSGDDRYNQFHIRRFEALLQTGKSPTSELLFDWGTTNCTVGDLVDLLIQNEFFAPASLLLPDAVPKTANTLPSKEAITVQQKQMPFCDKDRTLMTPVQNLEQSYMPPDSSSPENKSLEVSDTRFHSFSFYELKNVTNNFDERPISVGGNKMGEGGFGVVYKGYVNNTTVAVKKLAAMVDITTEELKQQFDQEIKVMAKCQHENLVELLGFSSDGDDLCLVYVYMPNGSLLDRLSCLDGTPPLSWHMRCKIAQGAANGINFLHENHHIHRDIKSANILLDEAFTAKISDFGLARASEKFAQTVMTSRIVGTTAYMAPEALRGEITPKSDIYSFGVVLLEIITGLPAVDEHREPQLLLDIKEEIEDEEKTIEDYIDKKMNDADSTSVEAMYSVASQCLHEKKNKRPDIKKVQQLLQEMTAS

| SMILES | IC50 (IRAK4) [nM] | efflux ratio at 120 min, 1 μM (MDR1) | solubility at 24 h [1] [mg/mL] |
| --- | --- | --- | --- |
| CC[C@@H](C)Oc1nc2nn(C34COC(C)(C3)C4)cc2cc1C(=O)Nc1cccn(C2CC2)c1=O [Example 14, (R)-6-(sec-butoxy)-N-(1-cyclopropyl-2-oxo-1,2-dihydropyridin-3-yl)-2-(1-methyl-2-oxabicyclo[2.1.1]hexan-4-yl)-2H-pyrazolo[3,4-b]pyridine-5-carboxamide] | 1.4 | 2.27 | 0.043 (≈ 92.8 µM) |
| CC12CC(n3cc4cc(C(=O)Nc5cccn([C@@H]6C[C@@H]6F)c5=O)c(OC5CCC5)nc4n3)(CO1)C2 (racemic) [Example 25, 6-cyclobutoxy-N-(1-(cis-2-fluorocyclopropyl)-2-oxo-1,2-dihydropyridin-3-yl)-2-(1-methyl-2-oxabicyclo[2.1.1]hexan-4-yl)-2H-pyrazolo[3,4-b]pyridine-5-carboxamide] | 0.3 | 2.71 | 0.0292 (≈ 60.9 µM) |
| O=C(Nc1cccn([C@H]2C[C@H]2F)c1=O)c1cc2cn([C@@]34CC[C@@H](C3)OC4)nc2nc1OC1CC1 (single isomer, unassigned) [Example 87] | 0.2 | 7.93 | 0.0624 (≈ 134 µM) |
| CC(C)Oc1cc2nn([C@]34CC[C@](C)(C3)OC4)cc2cc1C(=O)Nc1cccn(C2CC2)c1=O [Example 3, N-(1-cyclopropyl-2-oxo-1,2-dihydropyridin-3-yl)-6-isopropoxy-2-((1R,4R)-1-methyl-2-oxabicyclo[2.2.1]heptan-4-yl)-2H-indazole-5-carboxamide] | 0.5 | 1.59 | 0.0079 (≈ 17.1 µM) |
| COCC12CC(n3cc4cc(C(=O)Nc5cccn([C@@H]6C[C@H]6F)c5=O)c(OC(C)C)nc4n3)(CO1)C2 (single isomer, unassigned) [Example 63] | 0.5 | 5.06 | 0.0588 (≈ 118 µM) |
| CC12CC(n3cc4cc(C(=O)Nc5cccn(C6CC6)c5=O)c(OC5CCC5)cc4n3)(CO1)C2 [Example 1, 6-Cyclobutoxy-N-(1-cyclopropyl-2-oxo-1,2-dihydropyridin-3-yl)-2-(1-methyl-2-oxabicyclo[2.1.1]hexan-4-yl)-2H-indazole-5-carboxamide] | 0.9 | – | 0.0709 (≈ 154 µM) |
| CC(C)Oc1cc2nn(C34COC(C)(C3)C4)cc2cc1C(=O)Nc1ccnn(C2CC2)c1=O [Example 45, N-(2-cyclopropyl-3-oxo-2,3-dihydropyridazin-4-yl)-6-isopropoxy-2-(1-methyl-2-oxabicyclo[2.1.1]hexan-4-yl)-2H-indazole-5-carboxamide] | 1.3 | 0.73 | 0.0012 (≈ 2.67 µM) |
| C[C@]12CC[C@](n3cc4cc(C(=O)Nc5cccn(C6CC6)c5=O)c(OC5CCC5)nc4n3)(CO1)C2 [Example 7, 6-cyclobutoxy-N-(1-cyclopropyl-2-oxo-1,2-dihydropyridin-3-yl)-2-((1R,4R)-1-methyl-2-oxabicyclo[2.2.1]heptan-4-yl)-2H-pyrazolo[3,4-b]pyridine-5-carboxamide] | 0.7 | 1.43 | 0.0103 (≈ 21.6 µM) |
| CC(C)Oc1nc2nn(C3CCOCC3)cc2cc1C(=O)Nc1cccn(C2CC2)c1=O [Example 13] | 0.7 | 3.41 | 0.0198 (≈ 45.3 µM) |
| COCC12CCC(n3cc4cc(C(=O)Nc5cccn(C6CC6)c5=O)c(OC(C)C)nc4n3)(CO1)C2 (stereo not drawn) [Example 29, N-(1-cyclopropyl-2-oxo-1,2-dihydropyridin-3-yl)-6-isopropoxy-2-(1-(methoxymethyl)-2-oxabicyclo[2.2.1]heptan-4-yl)-2H-pyrazolo[3,4-b]pyridine-5-carboxamide] | 0.2 | 2.79 | 0.0742 (≈ 150 µM) |
| CC(C)Oc1nc2nn(C34COC(C)(C3)C4)cc2cc1C(=O)Nc1cccn([C@@H]2C[C@@H]2F)c1=O [Example 83, N-(1-((1R,2S)-2-fluorocyclopropyl)-2-oxo-1,2-dihydropyridin-3-yl)-6-isopropoxy-2-(1-methyl-2-oxabicyclo[2.1.1]hexan-4-yl)-2H-pyrazolo[3,4-b]pyridine-5-carboxamide] | – | 4.48 | 0.0167 (≈ 35.7 µM) |
| C[C@@H]1C[C@@H]1n1cccc(NC(=O)c2cc3cn(C45COC(C)(C4)C5)nc3nc2OC2CCC2)c1=O [Example 95, 6-cyclobutoxy-2-(1-methyl-2-oxabicyclo[2.1.1]hexan-4-yl)-N-(1-((1S,2R)-2-methylcyclopropyl)-2-oxo-1,2-dihydropyridin-3-yl)-2H-pyrazolo[3,4-b]pyridine-5-carboxamide] | 0.8 | 1.09 | 0.0483 (≈ 102 µM) |
| COCC12CC(n3cc4cc(C(=O)Nc5cccn([C@@H]6C[C@H]6F)c5=O)c(OC(C)C)cc4n3)(CO1)C2 (single isomer, unassigned) [Example 55] | 0.8 | 3.71 | 0.0605 (≈ 122 µM) |
| COCC12CC(n3cc4cc(C(=O)Nc5cccn([C@H]6C[C@H]6F)c5=O)c(OC(C)C)cc4n3)(CO1)C2 [Example 67, N-(1-((1S,2R)-2-fluorocyclopropyl)-2-oxo-1,2-dihydropyridin-3-yl)-6-isopropoxy-2-(1-(methoxymethyl)-2-oxabicyclo[2.1.1]hexan-4-yl)-2H-indazole-5-carboxamide] | 0.4 | 5.31 | 0.034 (≈ 68.5 µM) |
| CC(C)Oc1cc2nn([C@]34CC[C@](C)(C3)OC4)cc2cc1C(=O)Nc1cccn([C@@H]2C[C@H]2F)c1=O (single isomer, unassigned) [Example 61] | 0.5 | 1.43 | 0.0515 (≈ 107 µM) |
| COCC12CC(n3cc4cc(C(=O)Nc5cccn([C@H]6C[C@H]6C)c5=O)c(OC5CC5)nc4n3)(CO1)C2 [Example 90] | 1.1 | 5.39 | 0.0652 (≈ 133 µM) |
| CC(C)Oc1nc2nn(C34COC(C)(C3)C4)cc2cc1C(=O)Nc1cccn([C@H]2C[C@@H]2F)c1=O (single isomer, unassigned) [Example 43] | – | 1.82 | 0.0018 (≈ 3.85 µM) |
| CC(C)Oc1nc2nn(C34COC(C)(C3)C4)cc2cc1C(=O)Nc1cccn([C@H]2C[C@H]2F)c1=O [Example 84, N-(1-((1S,2R)-2-fluorocyclopropyl)-2-oxo-1,2-dihydropyridin-3-yl)-6-isopropoxy-2-(1-methyl-2-oxabicyclo[2.1.1]hexan-4-yl)-2H-pyrazolo[3,4-b]pyridine-5-carboxamide] | – | 3.06 | 0.0158 (≈ 33.8 µM) |
| CC(C)Oc1cc2nn(C34COC(C)(C3)C4)cc2cc1C(=O)Nc1cccn([C@@H]2C[C@@H]2F)c1=O (single isomer, unassigned) [Example 36] | – | 2.96 | 0.0695 (≈ 149 µM) |
| COCC12CC(n3cc4cc(C(=O)Nc5cccn([C@H]6C[C@@H]6F)c5=O)c(OC5CCC5)nc4n3)(CO1)C2 (single isomer, unassigned) [Example 66] | 0.8 | 3.38 | 0.0123 (≈ 24.1 µM) |
| C[C@@]12CC[C@@](n3cc4cc(C(=O)Nc5cccn(C6CC6)c5=O)c(OC5CCC5)nc4n3)(CO1)C2 [Example 6, 6-cyclobutoxy-N-(1-cyclopropyl-2-oxo-1,2-dihydropyridin-3-yl)-2-((1S,4S)-1-methyl-2-oxabicyclo[2.2.1]heptan-4-yl)-2H-pyrazolo[3,4-b]pyridine-5-carboxamide] | 0.4 | 1.59 | 0.00557 (≈ 11.7 µM) |
| CC(C)Oc1nc2nn(C34COC(C)(C3)C4)cc2cc1C(=O)Nc1ccnn(C2CC2)c1=O [Example 46, N-(2-cyclopropyl-3-oxo-2,3-dihydropyridazin-4-yl)-6-isopropoxy-2-(1-methyl-2-oxabicyclo[2.1.1]hexan-4-yl)-2H-pyrazolo[3,4-b]pyridine-5-carboxamide] | 0.4 | 0.88 | 0.0002 (≈ 0.444 µM) |
| CC(C)Oc1nc2nn(C34COC(C)(C3)C4)cc2cc1C(=O)Nc1cccn([C@@H]2C[C@@H]2F)c1=O (single isomer, unassigned) [Example 33] | – | 4.15 | 0.0066 (≈ 14.1 µM) |
| CC(C)Oc1cc2nn([C@]34CC[C@](C)(C3)OC4)cc2cc1C(=O)Nc1cccn([C@H]2C[C@@H]2F)c1=O (single isomer, unassigned) [Example 62] | 0.6 | 1.6 | 0.0561 (≈ 117 µM) |
| COCC12CC(n3cc4cc(C(=O)Nc5cccn([C@H]6C[C@H]6C)c5=O)c(OC(C)C)cc4n3)(CO1)C2 [Example 78, 6-isopropoxy-2-(1-(methoxymethyl)-2-oxabicyclo[2.1.1]hexan-4-yl)-N-(1-((1S,2R)-2-methylcyclopropyl)-2-oxo-1,2-dihydropyridin-3-yl)-2H-indazole-5-carboxamide] | 0.7 | 2.05 | 0.0361 (≈ 73.3 µM) |
| COC[C@]12CC[C@](n3cc4cc(C(=O)Nc5cccn(C6CC6)c5=O)c(OC(C)C)nc4n3)(CO1)C2 [Example 31, N-(1-cyclopropyl-2-oxo-1,2-dihydropyridin-3-yl)-6-isopropoxy-2-((1R,4R)-1-(methoxymethyl)-2-oxabicyclo[2.2.1]heptan-4-yl)-2H-pyrazolo[3,4-b]pyridine-5-carboxamide] | 0.2 | 2.5 | 0.0618 (≈ 125 µM) |
| CC(C)Oc1cc2nn(C34COC(C)(C3)C4)cc2cc1C(=O)Nc1cccn([C@H]2C[C@H]2F)c1=O (single isomer, unassigned) [Example 37] | – | 2.71 | 0.056 (≈ 120 µM) |
| CC(C)Oc1cc2nn(C34COC(C)(C3)C4)cc2cc1C(=O)Nc1cccn([C@@H]2C[C@H]2F)c1=O (single isomer, unassigned) [Example 54] | – | 1.77 | 0.0665 (≈ 143 µM) |
| CC(C)Oc1nc2nn(C34COC(C)(C3)C4)cc2cc1C(=O)Nc1cccn([C@@H]2C[C@H]2F)c1=O (single isomer, unassigned) [Example 44] | – | 1.84 | 0.0019 (≈ 4.06 µM) |
